Converted amounts (≈) assume the structure as drawn. “Also recorded” adds a separate entry of the source. Where two headings read alike, the source gives them in different places.
Assays:
P. falciparum D6 = settings: cited from earlier work
[1] = tested on: P. falciparum FcB1/Colombia; set-up: method as in PMID 15474559; settings: chloroquine-resistant P. falciparum FcB1/Colombia; cited from earlier work
heme polymerization = tested on: heme polymerization; set-up: method as in PMID 9199506; settings: cited from earlier work
P. falciparum K1 strain = assay: in vitro antiplasmodial activity, parasite lactate dehydrogenase (pLDH) assay; assay type: cell-based, Plasmodium falciparum; settings: for IC50: Plasmodium falciparum, read-out: IC50 ± SD P. falciparum K1; for antiplasmodial activity classification of pure compounds: P. falciparum K1, class by IC50; for Selectivity index (SI): CC50 Vero cells / IC50 P. falciparum K1
PfLDH = settings: cited from earlier work
[2] = in vitro cytotoxicity, MTT assay; assay type: cell-based; settings: African green monkey, pure compounds and doxorubicin, 48 h, mean ± SD of three determinations; for CC50 at 48 h: Vero cells
Method: (§1) The purpose of this study was to determine the cytotoxicity of crude extracts and pure compounds isolated from M. ferrea roots on Vero cells. The MTT assay was performed according to an established protocol. Briefly, Vero cells were cultured in Dulbecco’s Modified Eagle Medium (Gibco, USA) supplemented with 10% fetal bovine serum (FBS) (Sigma-Aldrich, New Delhi, India). Vero cell suspensions were seeded onto 96-well culture plates at a density of 1 × 10^4 cells per well. The seeded culture plates were incubated at 37 °C in a 5% CO2 atmosphere for 24 h to facilitate cell attachment. Subsequently, the cultured cells were exposed to the test extracts and pure compounds in triplicate for each concentration. Doxorubicin (Sigma-Aldrich, India) was used as a positive control, whereas DMSO served as a negative control. All extracts and pure compounds were dissolved in DMSO and added to the medium at a final concentration of 0.5% DMSO. Plates containing the test samples were incubated at 37 °C in a 5% CO2 atmosphere for 48 h. Following incubation, the cell culture supernatant was discarded, and 50 µL of MTT solution (5 mg/mL) (Thermo Fisher Scientific, Oregon, USA) was added to each well. The test plates were then incubated at 37 °C in a 5% CO2 atmosphere for 2 h. Subsequently, the supernatant was discarded, and 100 µL/well of DMSO was added to induce cell lysis and dissolve the formazan crystals. To estimate the reactions, absorbance was measured at 560 nm in a microplate reader, and the background absorbance at 670 nm was subtracted.

Vero cells = assay: in vitro cytotoxicity, MTT assay; assay type: cell-based; settings: Vero cells, toxic when CC50 < 100 µM
Method: as §1

P. falciparum 3D7 = tested on: P. falciparum 3D7; set-up: method as in PMID 37029625; settings: chloroquine-sensitive P. falciparum 3D7; read-out: IC50 antiplasmodial activity; cited from earlier work
[3] = K1, pure compounds and reference drugs, 72 h, mean ± SD of three determinations
[4] = ratio of IC50 against P. falciparum K1

IC50 (P. falciparum K1 strain; [3]) [µM] | SMILES | antiplasmodial activity classification of pure compounds (P. falciparum K1 strain) | CC50 at 48 h [2] [µM] | cytotoxicity classification of pure compounds (Vero cells) | further results
 | O=c1c2cccc(O)c2oc2cc(O)cc(O)c12 [1,3,5-trihydroxyxanthone] |  |  |  | IC50 (P. falciparum D6; P. falciparum D6, read-out: IC50 antiplasmodial activity): > 60 µM; IC50 antiplasmodial activity [1]: 24.7 µg/mL (≈ 101 µM)
 | O=c1c2ccc(O)c(O)c2oc2c(O)c(O)c(O)cc12 [2,3,4,5,6-pentahydroxyxanthone] |  |  |  | IC50 (heme polymerization; read-out: IC50 in vitro heme polymerization): 1.2 µM; IC50 (P. falciparum D6; chloroquine-sensitive P. falciparum D6, read-out: IC50 in vitro antiplasmodial activity): 0.4 µM
 | COc1cc2c(=O)c3ccc(OC)c(OC)c3oc2c(OC)c1OC [2,3,4,5,6-pentamethoxyxanthone] |  |  |  | heme polymerization inhibition (heme polymerization): no in vitro antiplasmodial activity or heme polymerization; in vitro antiplasmodial activity (P. falciparum D6; same study as pentahydroxyxanthone): no in vitro antiplasmodial activity
0.003 | C[C@H]1[C@H](OC(=O)CCC(=O)O)O[C@@H]2O[C@@]3(C)CC[C@H]4[C@H](C)CC[C@@H]1[C@@]24OO3 [Artesunate, artesunate, reference compound] |  |  |  | 
 | CCN(CC)CCCC(C)Nc1ccnc2cc(Cl)ccc12 (centres unmarked) [Chloroquine, chloroquine, reference compound] |  |  |  | IC50 (P. falciparum K1 strain; K1, 72 h): 0.32 µM; PfLDH inhibition (PfLDH): weak inhibitor
346 ± 3.51 | COc1ccc2oc3cccc(O)c3c(=O)c2c1 [Compound 1, 1-hydroxy-7-methoxyxanthone] | inactive | 195.8 ± 1.68 | non-toxic | 
164 ± 1.71 | COc1cccc2c(=O)c3c(O)cccc3oc12 [Compound 2, 1-hydroxy-5-methoxyxanthone] | low (low activity (IC50 100−200 µM)) | 62 ± 1.18 | toxic (pure compounds are considered toxic to cells when the CC50 value is less than 100 µM) | 
107 ± 4.41 | O=c1c2cccc(O)c2oc2cccc(O)c12 [Compound 4, 1,5-dihydroxyxanthone] | low (low activity (IC50 100−200 µM)) | 416.7 ± 1.98 | non-toxic | Selectivity index (SI) (P. falciparum K1 strain): 3.89
198 ± 2.43 | COc1cc(O)c2c(=O)c3cccc(O)c3oc2c1 [Compound 6, 1,5-dihydroxy-3-methoxyxanthone] | low (low activity (IC50 100−200 µM)) | 210.2 ± 1.74 | non-toxic | 
46.3 ± 1.65 | COc1c(O)ccc2oc3c(O)cccc3c(=O)c12 [Compound 7, 2,5-dihydroxy-1-methoxyxanthone] | moderate (moderate activity (IC50 20−100 µM)) | 587.9 ± 2.18 | non-toxic | Selectivity index (SI) (P. falciparum K1 strain): 12.70
 | COc1cccc2c1C(=O)c1c(O)c3c(c(O)c1C2=O)C[C@@](O)(C(=O)CO)C[C@@H]3O[C@H]1C[C@H](N)[C@H](O)[C@H](C)O1 [Doxorubicin, reference compound] |  | 3.35 ± 0.28 |  | 
 | C=CC(C)(C)c1c2c(c(O)c3c(=O)c4cccc(O)c4oc13)C=CC(C)(C)O2 [caloxanthone C] |  |  |  | IC50 antiplasmodial activity [1]: 1.3 µg/mL (≈ 3.44 µM)
 | CC1(C)C=Cc2c(cc(O)c3c(=O)c4ccc(O)c(O)c4oc23)O1 [isojacareubin] |  |  |  | IC50 (P. falciparum 3D7): 11.5 µM
 | C=CC(C)(C)c1c2c(c(O)c3c(=O)c4ccc(O)c(O)c4oc13)C=CC(C)(C)O2 [macluraxanthone] |  |  |  | IC50 (P. falciparum 3D7): 4.28 µM

SMILES | IC50 (P. falciparum K1 strain; [3]) [µM] | antiplasmodial activity classification of pure compounds (P. falciparum K1 strain) | CC50 at 48 h [2] [µM] | cytotoxicity classification of pure compounds (Vero cells) | further results
O=c1c2ccc(O)cc2oc2cccc(O)c12 [Compound 3, 1,6-dihydroxyxanthone] | 226.1 ± 1.32 | inactive |  | non-toxic | CC50 ([2]; read-out: CC50 ± SD Vero cells): 182.8 ± 1.62 µM
CC1(C)C=Cc2cc3c(=O)c4c(O)cccc4oc3c(O)c2O1 [Compound 5, rheediachromenoxanthone] | 19.9 ± 0.72 | good (good activity (IC50 1−20 µM)) | 112 ± 1.54 | no toxicity; also recorded: non-toxic | fold less potent than artesunate (P. falciparum K1 strain; [4]): ~6,643.3 fold; fold less potent than chloroquine (P. falciparum K1 strain; [4]): approximately 62.3 fold; times more potent than 2,5-dihydroxy-1-methoxyxanthone (7) (P. falciparum K1 strain; [4]): approximately 2.3 times; cytotoxicity classification of pure compounds (Vero cells; listed as Rheediachromenoxanthone): non-toxicity

From paper PMC11270968, “Antiplasmodial potential of isolated xanthones from Mesua ferrea Linn. roots: an in vitro and in silico molecular docking and pharmacokinetics study” (BMC Complementary Medicine and Therapies, 2024)
